Results on eight compounds are retold here after US7807691B2, “Substituted N-arylpyrrolidines as selective androgen receptor modulators” (Eli Lilly and Company, priority 2005, dated 2010).

The structures appear in SMILES notation.

One assay deals with castrated male ICR mice. Nature of the assay: In vivo mouse model of efficacy and selectivity (castrated mice, tissue wet weights). As to conditions: for % Efficacy: (ANOVA, p < 0.05): Levator Ani muscle wet weight vs castrated vehicle-only control x100, 10 mg/kg/d, two weeks; for Seminal vesicle and/or prostate weight gain: tissue selectivity indicator, castrated mice. The procedure: Male ICR mice (8 weeks old) are castrated according to approved procedures (Taconic, N.Y.) and allowed to waste for eight weeks. Age-matched sham-operated mice are also prepared. (Sham-operated mice are animals that have been exposed to the same surgical procedures as castrated animals except their testes are not removed.) Animals are housed in a temperature-controlled room (24° C.) with a reversed 12 hour light/dark cycle (dark 10:00/22:00) and water and food are available ad libitum.
Test compounds are administered to the animals using conventional vehicles. For example, for oral dosing 1% Sodium Carboxymethylcellulose (CMC)+0.25% Tween 80 in sterile H2O can be used for oral formulation and 6% Ethyl-alcohol (EtOH)+94% cyclodexitrane (CDX) can be used for subcutaneous injections. Castrated mice treated with Testosteron Enanthate (TE) (10 mg/kg/d) are used as a treatment positive control whereas castrated mice treated only with vehicle are used as treatment negative control. In addition, sham-operated mice treated with vehicle only are used as control for the surgical method.
Test animals are dosed over a two week timeframe, orally or subcutaneously, with, for example, 0.3, 1, 3, 10 or 30 mg/kg/day of a compound of the present invention. After the two-week treatment, as an indicator of activity the wet weight of the Levator Ani muscle in the test group is determined and compared to the weight in the castrated, vehicle-only control group. The percent efficacy is then calculated as follows: (Wet weight in treatment group/Wet weight in control group)×100 As an indicator of tissue selective activity, the wet weight of the seminal vesicle from test animals is similarly compared to the weight of the seminal vesicles from the castrated, vehicle-only group. In addition, a comparison of the wet weight of the prostate glands from the drug-treated group, to the wet weight of the prostate glands removed from the castrated, vehicle-only group, may also be used as an indicator of tissue selective activity.
Table II (see below) provides % efficacy data for a select sample of exemplified compounds of the present invention in an animal model essentially as described above. Animal models of efficacy and selectivity similar to those described above can be readily designed and performed by the ordinarily skilled artisan, for example, Eisenberg and Gilbert, J Pharmacol Exp Ther. 1950, 99(1), 38-44, provides an alternative rat model that may be employed to show in vivo efficacy.)

In assay [1] the target is T1, human androgen receptor (AR) (Homo sapiens, UniProt P10275).
T1 construct: expressed in transfected cells; host or cells: mouse myoblast C2C12 cells, transiently co-transfected with FuGENE
T1 sequence (P10275 1-920): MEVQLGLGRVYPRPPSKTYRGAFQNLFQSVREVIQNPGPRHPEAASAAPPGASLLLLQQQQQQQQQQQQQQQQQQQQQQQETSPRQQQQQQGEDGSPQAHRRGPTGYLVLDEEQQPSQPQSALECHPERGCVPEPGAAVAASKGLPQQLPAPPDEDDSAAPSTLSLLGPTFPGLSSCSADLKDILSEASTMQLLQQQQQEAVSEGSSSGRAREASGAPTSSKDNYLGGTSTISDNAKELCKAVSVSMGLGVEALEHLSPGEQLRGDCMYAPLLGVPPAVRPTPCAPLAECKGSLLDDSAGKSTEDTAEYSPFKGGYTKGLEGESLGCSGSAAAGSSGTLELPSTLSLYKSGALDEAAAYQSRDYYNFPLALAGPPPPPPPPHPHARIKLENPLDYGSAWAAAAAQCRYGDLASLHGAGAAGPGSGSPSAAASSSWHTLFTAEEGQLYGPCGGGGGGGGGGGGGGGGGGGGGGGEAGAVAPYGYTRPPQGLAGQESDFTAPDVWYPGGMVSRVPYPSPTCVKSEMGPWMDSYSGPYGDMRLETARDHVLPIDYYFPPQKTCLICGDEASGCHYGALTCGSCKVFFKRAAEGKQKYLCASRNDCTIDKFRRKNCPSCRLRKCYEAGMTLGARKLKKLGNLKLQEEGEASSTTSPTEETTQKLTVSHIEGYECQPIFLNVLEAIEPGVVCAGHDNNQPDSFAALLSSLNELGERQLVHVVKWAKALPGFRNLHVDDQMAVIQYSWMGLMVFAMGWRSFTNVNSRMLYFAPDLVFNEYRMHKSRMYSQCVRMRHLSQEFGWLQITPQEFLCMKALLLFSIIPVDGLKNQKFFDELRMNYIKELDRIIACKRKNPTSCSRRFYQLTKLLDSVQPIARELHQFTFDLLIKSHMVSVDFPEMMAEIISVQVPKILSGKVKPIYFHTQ
Nature of the assay: C2C12 AR/ARE reporter assay. In kind it is cell-based. As to conditions: average; for Emax: C2C12, read-out: C2C12 % Efficacy, versus maximum stimulation obtained with 10 nM methyltrienolone; for EC50: C2C12 EC50(nM), mouse myoblast C2C12 cells, luciferase reporter, 48 h. The procedure:
As an indicator of agonist activity in muscle tissue, the C2C12 AR/ARE reporter assay is performed. Briefly, mouse myoblast C2C12 cells are co-transfected using FuGENE™. […] Cells are transfected in T150 cm^2 flasks in DMEM media with 4% or 10% Fetal Bovine Serum (FBS). After a 5 hour incubation, transfected cells are trypsinized, plated in 96 well dishes in DMEM media containing 10% charcoal-stripped FBS, incubated for 2 h and then exposed to various concentrations of test compounds ranging from about 0.01 nM to 10 μM. After 48 h of incubations with compounds, cells are lysed and luciferase activity is determined using standard techniques. Data is fit to a 4 parameter-fit logistics to determine EC50 values. The % efficacy is determined versus maximum stimulation obtained with 10 nM methyltrienolone. […]

Assay [2] addresses T2, human AR (androgen receptor) (Homo sapiens, UniProt P10275).
T2 construct: expressed in transfected cells; host or cells: 293 cells (293-AR lysate)
T2 sequence (P10275 1-920): T1 sequence (P10275 1-920)
Nature of the assay: Steroid hormone nuclear receptor binding assay (AR binding). As to conditions: AR binding Ki (nM), 293-AR cell lysate, 3H-methyltrienolone competition. The protocol:
Cell lysates from 293 cells overexpressing human GR (glucocorticoid receptor), AR (androgen receptor), MR (mineralocorticoid receptor) or PR (progesterone receptor) are used for competition binding assays to determine Ki values for test compounds. Briefly, competition binding assays are run in a buffer containing 20 mM Hepes, pH 7.6, 0.2 mM EDTA, 75 mM NaCl, 1.5 mM MgCl2, 20% glycerol, 20 mM sodium molybdate, 0.2 mM DTT, 20 ug/ml aprotinin and 20 ug/ml leupeptin, using either 0.3 nM ^3H-dexamethasone for GR binding, 0.36 nM ^3H-methyltrienolone for AR binding, 0.25 nM ^3H-aldosterone for MR binding, or 0.29 nM ^3H-methyltrienolone for PR binding, and either 20 ug 293-GR lysate, 22 ug 293-AR lysate, 20 ug 293-MR lysate or 40 ug 293-PR lysate per well. Competing compounds are added at various concentrations ranging from about 0.01 nM to 10 μM. Non-specific binding is determined in the presence of 500 nM dexamethasone for GR binding, 500 nM aldosterone for MR binding, or 500 nM methyltrienolone for AR and PR binding. The binding reaction (140 μl) is incubated for overnight at 4° C., then 70 μl of cold charcoal-dextran buffer (containing per 50 ml of assay buffer, 0.75 g of charcoal and 0.25 g of dextran) is added to each reaction. Plates are mixed 8 minutes on an orbital shaker at 4° C. Plates are then centrifuged at 3,000 rpm at 4° C. for 10 minutes. An aliquot of 120 μl of the mix is transferred to another 96-well plate and 175 μl of Wallac Optiphase “Hisafe 3” scintillation fluid is added to each well. Plates are sealed and shaken vigorously on an orbital shaker. After an incubation of 2 hrs, plates are read in a Wallac Microbeta counter. The data is used to calculate an IC50 and % Inhibition at 10 μM. The Kd for ^3H-dexamethasone for GR binding, ^3H-methyltrienolone for AR binding, ^3H-aldosterone for MR binding, or ^3H-methyltrienolone for PR binding, is determined by saturation binding. The IC50 values for test compounds are converted to Ki using Cheng-Prusoff equation and the Kd determined by saturation binding assay.
Binding assay protocols for steroid hormone nuclear receptors similar to those described above can be readily designed by the ordinarily skilled artisan.

Consider `Cc1c(N2CCCC2c2cccnc2)ccc(C#N)c1Cl` (stereo not shown) [Example 9], for which the “% Efficacy: (ANOVA, p < 0.05)” value in the assay with castrated male ICR mice (sc) turned out to be 186%. The “Seminal vesicle and/or prostate weight gain” value in the assay with castrated male ICR mice is given as “no weight gain”. For the same compound, in assay [1], the Emax amounted to 90.7% and the response was half-maximal at 2.6 nM (EC50). For the same compound, affinity in assay [2] was put at a Ki of 1.3 nM.

Take `Cc1c(N2CCCC2c2ccc3c(c2)OCO3)ccc(C#N)c1Cl` (stereo not shown) [Example 12]: the “% Efficacy: (ANOVA, p < 0.05)” value with castrated male ICR mice (po) is on record as 164%. In addition, the “Seminal vesicle and/or prostate weight gain” value in the assay on castrated male ICR mice is “no weight gain”. Further, in assay [1], the Emax stood at 95.6% and it took 12.4 nM to reach a half-maximal effect (EC50). The same compound yielded a Ki in assay [2] of 2.2 nM.

Consider `Cc1c(N2CCCC2c2nnco2)ccc(C#N)c1Cl` (stereo not shown) [Example 26, 2-chloro-3-methyl-4-[2-(1,3,4-oxadiazol-2-yl)-1-pyrrolidinyl]benzonitrile], for which, in assay [1], the Emax came to 82.7% and the EC50 turned out to be 4.2 nM. Also, the Ki in assay [2] was 5.4 nM.

As for `Cc1noc(C2CCCN2c2ccc(C#N)c(Cl)c2C)n1` (stereo not shown) [Example 27, 2-chloro-3-methyl-4-[2-(3-methyl-1,2,4-oxadiazol-5-yl)pyrrolidin-1-yl]benzonitrile], in assay [1], the Emax came out at 87.6% and a half-maximal response (EC50) required 0.5 nM. For the same compound, in assay [2], the affinity, expressed as Ki, was 1.9 nM.

Regarding `Cc1nnc(C2CCCN2c2ccc(C#N)c(Cl)c2C)s1` (stereo not shown) [Example 28, 2-chloro-3-methyl-4-[2-(5-methyl-1,3,4-thiadiazol-2-yl)pyrrolidin-1-yl]benzonitrile], in assay [1], the Emax is 74.3% and the midpoint of the response, the EC50, lay at 24.4 nM. In assay [2], this compound gave an inhibitory constant (Ki) of 9 nM.

For `Cc1nnc(C2CCCN2c2ccc(C#N)c(Cl)c2C)[nH]1` (stereo not shown) [Example 29, 2-chloro-3-methyl-4-[2-(5-methyl-4H-1,2,4-triazol-3-yl)pyrrolidin-1-yl]benzonitrile], in assay [1], the Emax worked out at 83.9% and the EC50 stood at 378 nM. This compound also came in with an inhibition constant (Ki) in assay [2] of 58.9 nM.

Turning to `Cc1c(N2CCCC2c2nnc(N)o2)ccc(C#N)c1Cl` (stereo not shown) [Example 30, 4-[2-(5-amino-1,3,4-oxadiazol-2-yl)pyrrolidin-1-yl]-2-chloro-3-methylbenzonitrile], in assay [1], the Emax was found to be 95.7% and it took 37.9 nM to reach a half-maximal effect (EC50). Also, the Ki in assay [2] was found to be 18.7 nM.

On to `Cc1c(N2CC(O)CC2c2ccccc2)ccc(C#N)c1Cl` (stereo not shown) [Example 31, 2-Chloro-3-methyl-4-(4-hydroxy-2-phenyl-pyrrolidin-1-yl)-benzonitrile], for which, in assay [1], the Emax was 91.6% and the response was half-maximal at 20.7 nM (EC50). In assay [2], this compound showed a Ki of 8.3 nM.
